For this assay, the target named is ROCK2 (Homo sapiens (Human), UniProt O75116). Put plainly: ROCK assay (LABCHIP 3000 peptide phosphorylation assay). Type of assay: biochemical. The note with it: 5 μM ATP, 1.5 μM peptide substrate, dose-response. As to the method:
The effectiveness of compounds of the present invention as ROCK inhibitors can be determined in a 30 μL assay containing 20 mM HEPES, pH 7.5, 20 mM MgCl2, 0.015% Brij-35, 4 mM DTT, 5 μM ATP and 1.5 μM peptide substrate (FITC-AHA-AKRRRLSSLRA-OH) (SEQ ID No. 1). Compounds were dissolved in DMSO so that the final concentration of DMSO was <2%, and the reaction was initiated with Rho kinase variants. After incubation, the reaction was terminated by the addition of EDTA and the phosphorylated and non-phosphorylated peptides separated using a LABCHIP® 3000 Reader (Caliper Life Sciences). […] Compounds were tested in dose-response format, and the inhibition of kinase activity was calculated at each concentration of compound. The inhibition data were fit using a curve-fitting program to determine the IC50; i.e., the concentration of compound required to inhibit 50% of kinase activity.

Structures are written as SMILES.

Our source for the IC50 values is patent publication US11306081B2, “Phenylacetamides as inhibitors of rock” (BRISTOL-MYERS SQUIBB COMPANY, priority 2017, dated 2022).

What is called IC50 is the concentration at which inhibition is half-maximal. Read a low IC50 as greater potency.

ROCK2, sequence (O75116 whole entry, species assumed): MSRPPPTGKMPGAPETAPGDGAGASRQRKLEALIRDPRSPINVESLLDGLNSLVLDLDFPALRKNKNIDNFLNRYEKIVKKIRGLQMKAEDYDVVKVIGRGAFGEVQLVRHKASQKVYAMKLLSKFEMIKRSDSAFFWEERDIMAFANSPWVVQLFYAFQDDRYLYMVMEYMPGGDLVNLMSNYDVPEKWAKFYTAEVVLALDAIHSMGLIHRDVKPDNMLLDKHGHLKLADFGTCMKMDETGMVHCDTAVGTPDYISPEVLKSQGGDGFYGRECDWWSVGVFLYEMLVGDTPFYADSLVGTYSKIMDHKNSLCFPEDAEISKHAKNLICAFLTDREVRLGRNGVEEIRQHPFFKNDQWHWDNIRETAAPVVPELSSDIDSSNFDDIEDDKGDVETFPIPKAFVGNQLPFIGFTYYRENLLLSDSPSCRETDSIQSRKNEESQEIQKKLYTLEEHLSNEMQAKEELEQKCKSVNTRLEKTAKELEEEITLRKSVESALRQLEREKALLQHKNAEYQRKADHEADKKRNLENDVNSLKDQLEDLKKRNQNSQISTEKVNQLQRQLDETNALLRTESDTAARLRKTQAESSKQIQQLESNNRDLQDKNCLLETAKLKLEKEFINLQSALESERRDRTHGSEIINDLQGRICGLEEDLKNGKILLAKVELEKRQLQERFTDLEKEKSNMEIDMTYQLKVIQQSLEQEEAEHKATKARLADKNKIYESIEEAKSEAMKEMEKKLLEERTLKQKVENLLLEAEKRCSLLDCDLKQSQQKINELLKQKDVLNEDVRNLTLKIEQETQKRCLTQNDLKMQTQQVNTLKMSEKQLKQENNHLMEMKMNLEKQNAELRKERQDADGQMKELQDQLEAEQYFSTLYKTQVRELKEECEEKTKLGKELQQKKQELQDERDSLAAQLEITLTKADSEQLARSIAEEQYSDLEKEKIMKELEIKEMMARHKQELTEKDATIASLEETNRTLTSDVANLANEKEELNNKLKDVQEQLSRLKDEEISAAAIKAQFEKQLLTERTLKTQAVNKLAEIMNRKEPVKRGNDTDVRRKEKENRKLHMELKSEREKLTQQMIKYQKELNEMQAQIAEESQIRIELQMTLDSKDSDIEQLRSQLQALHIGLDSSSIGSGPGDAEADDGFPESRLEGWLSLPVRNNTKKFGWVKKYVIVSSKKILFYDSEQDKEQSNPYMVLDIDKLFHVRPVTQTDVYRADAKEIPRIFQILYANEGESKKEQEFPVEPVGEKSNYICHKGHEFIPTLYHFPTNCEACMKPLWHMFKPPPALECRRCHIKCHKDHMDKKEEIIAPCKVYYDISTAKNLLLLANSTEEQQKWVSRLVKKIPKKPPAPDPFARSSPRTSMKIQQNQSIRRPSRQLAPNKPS

For the molecule `NC(=O)c1cccnc1Oc1ccc(CC(=O)N2CCc3cc(OCc4ccccc4)ccc32)cc1` [Example 059, 2-(4-(2-(5-(benzyloxy)indolin-1-yl)-2-oxoethyl)phenoxy) nicotinamide], the IC50 stood at 98 nM. The result for `COCCn1c(NC(=O)Cc2ccc(Oc3ncccc3C(N)=O)c(F)c2)nc2ccc(C(N)=O)cc21` [Example 158, 2-(2-(4-((3-carbamoyl-pyridin-2-yl)oxy)-3-fluorophenyl)-acetamido)-1-(2-methoxyethyl)-1H-benzo[d]-imidazole-6-carboxamide] reads 1720 nM; that for `Cc1sc(NC(=O)Cc2ccc(Oc3ncccc3C(N)=O)c(F)c2)nc1-c1ccc(=O)n(C)c1` [Example 020, 2-(2-fluoro-4-(2-((5-methyl-4-(1-methyl-6-oxo-1,6-dihydropyridin-3-yl)thiazol-2-yl)amino)-2-oxoethyl)phenoxy)nicotinamide], 106 nM. The same measure for `Cn1cc(-c2ccc3sc(NC(=O)Cc4ccc(Oc5ncccc5C(N)=O)c(F)c4)nc3c2)c(C2CC2)n1` [Example 026, 2-(4-(2-((5-(3-cyclopropyl-1-methyl-1H-pyrazol-4-yl)benzo[d]thiazol-2-yl)amino)-2-oxoethyl)-2-fluorophenoxy)nicotin-amide]: 8 nM. The result for `COc1ccn2nc(NC(=O)Cc3ccc(Oc4ncccc4C(N)=O)c(Cl)c3)nc2c1` [Example 125, 2-(2-chloro-4-(2-((7-methoxy-[1,2,4]triazolo-[1,5-a]pyridin-2-yl)amino)-2-oxoethyl)phenoxy)-nicotinamide] reads 12 nM; that for `CC(C)(O)COc1ccc2nc(NC(=O)Cc3ccc(Oc4ncccc4C(N)=O)c(F)c3)n(CC3CC3)c2c1` [Example 178, 2-(4-(2-((1-(cyclopropylmethyl)-6-(2-hydroxy-2-methylpropoxy)-1H-benzo[d]imidazol-2-yl)amino)-2-oxoethyl)-2-fluorophenoxy)nicotinamide], 14 nM. In turn, `Cc1ccc2nc(NC(=O)Cc3ccc(Oc4ncccc4C(N)=O)c(F)c3)nn2c1C` [Example 131, 2-(4-(2-((5,6-dimethyl-[1,2,4]-triazolo[1,5-a]-pyridin-2-yl)-amino)-2-oxoethyl)-2-fluorophenoxy)-nicotinamide] had an IC50 of 129 nM. The molecule `Cc1sc(NC(=O)Cc2ccc(Oc3ncccc3C(N)=O)c(F)c2)nc1-c1ccncc1` [Example 044, 2-(2-fluoro-4-(2-((5-methyl-4-(pyridin-4-yl)thiazol-2-yl)amino)-2-oxoethyl)phenoxy)nico-tinamide] returned an IC50 of 24 nM. Consider `CC(C)(O)COc1ccc2nc(NC(=O)Cc3ccc(Oc4ncccc4C(N)=O)cc3)sc2c1` [Example 109, 2-(4-(2-((6-(2-hydroxy-2-methylpropoxy)benzo[d]thiazol-2-yl)amino)-2-oxoethyl)phenoxy)nicotinamide], for which the IC50 came to 74 nM.

For `NC(=O)c1cccnc1Oc1ccc(CC(=O)Nc2nc3cc(C(F)(F)F)ccn3n2)cc1F` [Example 132, 2-(2-fluoro-4-(2-oxo-2-((7-(trifluoro-methyl)-[1,2,4]-triazolo[1,5-a]-pyridin-2-yl)amino)-ethyl)phenoxy)-nicotinamide], the midpoint of inhibition, the IC50, lay at 129 nM. The same measure for `Cc1cc2nc(NC(=O)Cc3ccc(Oc4ncccc4C(N)=O)c(F)c3)nn2cc1C` [Example 130, 2-(4-(2-((6,7-dimethyl-[1,2,4]-triazolo[1,5-a]-pyridin-2-yl)-amino)-2-oxoethyl)-2-fluorophenoxy)-nicotinamide]: 23 nM.

In turn, `NC(=O)c1cccnc1Oc1ccc(CC(=O)Nc2nc(-c3ccccc3)cs2)cc1` [Example 052, 2-(4-(2-oxo-2-((4-phenylthiazol-2-yl)amino)ethyl)phe-noxy)nicotinamide] yielded an IC50 of 177 nM. Molecule `NC(=O)c1cccnc1Oc1ccc(CC(=O)Nc2nc(-c3cccc4oc(=O)ccc34)cs2)cc1` [Example 061, 2-(4-(2-oxo-2-((4-(2-oxo-2H-chromen-5-yl)thiazol-2-yl)amino)ethyl)phe-noxy)nicotinamide] had an IC50 of 506 nM. `Cc1sc(NC(=O)Cc2ccc(Oc3ncccc3C(N)=O)c(Cl)c2)nc1-c1ccc(Cl)nc1` [Example 105, 2-(2-chloro-4-(2-((4-(6-chloropyridin-3-yl)-5-methylthiazol-2-yl)amino)-2-oxoethyl)phenoxy) nicotinamide] registered an IC50 of 15 nM. Molecule `Cn1cc(-c2ccc3nc(NC(=O)Cc4ccc(Oc5ncccc5C(N)=O)c(F)c4)cn3c2)cn1` [Example 036, 2-(2-fluoro-4-(2-((6-(1-methyl-1H-pyrazol-4-yl)imidazo[1,2-a]pyridin-2-yl)amino)-2-oxoethyl)phenoxy)nico-tinamide] returned an IC50 of 48 nM. Consider `COc1ccc2c(c1)nc(NC(=O)Cc1ccc(Oc3ncccc3C(N)=O)c(F)c1)n2CC1CC1` [Example 162, 2-(4-(2-((1-(cyclopropyl-methyl)-5-methoxy-1H-benzo[d]-imidazol-2-yl)-amino)-2-oxoethyl)-2-fluorophenoxy)-nicotinamide], for which inhibition was half-maximal at 47 nM (IC50). The same measure for `COc1cccn2nc(NC(=O)Cc3ccc(Oc4ncccc4C(N)=O)cc3)nc12` [Example 083, 2-(4-(2-((8-methoxy-[1,2,4]triazolo[1,5-a]pyridin-2-yl)amino)-2-oxoethyl)phenoxy) nicotinamide]: 106 nM; for `NC(=O)c1cccnc1Oc1ccc(CC(=O)Nc2nnc(-c3ccccc3)s2)cc1` [Example 058, 2-(4-(2-oxo-2-((5-phenyl-1,3,4-thiadiazol-2-yl)amino)ethyl)phe-noxy)nicotinamide]: 419 nM; for `Cc1cccc(-c2nc(NC(=O)Cc3ccc(Oc4ncccc4C(N)=O)c(Cl)c3)sc2C)n1` [Example 022, 2-(2-chloro-4-(2-((5-methyl-4-(6-methylpyridin-2-yl)thiazol-2-yl)amino)-2-oxoethyl)phenoxy)nicotinamide]: 41 nM. For the molecule `NC(=O)c1cccnc1Oc1ccc(CC(=O)Nc2nc(-c3cccc(F)c3)cs2)cc1` [Example 064, 2-(4-(2-((4-(3-fluorophenyl)thia-zol-2-yl)amino)-2-oxoethyl)phenoxy) nicotinamide], the IC50 came out at 423 nM. The result for `[2H]C([2H])([2H])n1ccc(-c2ccc3sc(NC(=O)Cc4ccc(Oc5ncccc5C(N)=O)c(F)c4)nc3c2)n1` [Example 034, 2-(2-fluoro-4-(2-((5-(1-(methyl-d3)-1H-pyrazol-3-yl)benzo[d]thiazol-2-yl)amino)-2-oxoethyl)phenoxy)nico-tinamide] reads 8 nM; that for `COc1ccc2c(c1)CCc1sc(NC(=O)Cc3ccc(Oc4ncccc4C(N)=O)cc3)nc1-2` [Example 053, 2-(4-(2-((7-methoxy-4,5-dihydronaphtho[1,2-d]thiazol-2-yl)amino)-2-oxoethyl)phenoxy) nicotinamide], 21 nM; that for `Cc1nnc(NC(=O)Cc2ccc(Oc3ncccc3C(N)=O)cc2)s1` [Example 055, 2-(4-(2-((5-methyl-1,3,4-thiadiazol-2-yl)amino)-2-oxoethyl)phenoxy) nicotinamide], 1110 nM. Consider `NC(=O)c1cccnc1Oc1ccc(CC(=O)Nc2nnc(-c3ccncc3)s2)cc1F` [Example 097, 2-(2-fluoro-4-(2-oxo-2-((5-(pyridin-4-yl)-1,3,4-thiadiazol-2-yl)amino)ethyl)phe-noxy)nicotinamide], for which the IC50 was determined as 336 nM. The result for `Cn1ccc(-c2ccc3sc(NC(=O)Cc4ccc(Oc5ncccc5C(N)=O)c(F)c4)nc3c2)n1` [Example 033, 2-(2-fluoro-4-(2-((5-(1-methyl-1H-pyrazol-3-yl)benzo[d]thiazol-2-yl)amino)-2-oxoethyl)phenoxy)nico-tinamide] reads 7 nM.

On to `CC(C)(O)COc1ccc2sc(NC(=O)Cc3ccc(Oc4ncccc4C(N)=O)cc3)nc2c1` [Example 107, 2-(4-(2-((5-(2-hydroxy-2-methylpropoxy)benzo[d]thiazol-2-yl)amino)-2-oxoethyl)phenoxy)nicotinamide], for which the IC50 was 29 nM.

As to `COc1ccc(-c2csc(NC(=O)Cc3ccc(Oc4ncccc4C(N)=O)cc3)n2)cc1OC` [Example 051, 2-(4-(2-((4-(3,4-dimethoxyphenyl)thiazol-2-yl)amino)-2-oxoethyl)phenoxy) nicotinamide], the IC50 was 145 nM. The result for `COCCn1c(NC(=O)Cc2ccc(Oc3ncccc3C(N)=O)c(F)c2)nc2ccccc21` [Example 155, 2-(2-fluoro-4-(2-((1-(2-methoxyethyl)-1H-benzo[d]-imidazol-2-yl)-amino)-2-oxo-ethyl)phenoxy)-nicotinamide] reads 1930 nM; that for `NC(=O)c1cccnc1Oc1ccc(CC(=O)Nc2n[nH]c3ccccc23)cc1Cl` [Example 122, 2-(4-(2-((1H-indazol-3-yl)-amino)-2-oxoethyl)-2-chlorophenoxy)-nicotinamide], 97 nM; that for `NC(=O)c1cccnc1Oc1ccc(CC(=O)Nc2nc3cc(-c4c[nH]nc4C(F)(F)F)ccc3s2)cc1F` [Example 032, 2-(2-fluoro-4-(2-oxo-2-((5-(3-(trifluoromethyl)-1H-pyrazol-4-yl)benzo[d]thiazol-2-yl)amino)ethyl)phenoxy) nicotinamide], 89 nM. The same measure for `Cn1cc(-c2ccc3nc(NC(=O)Cc4ccc(Oc5ncccc5C(N)=O)c(Cl)c4)cn3c2)cn1` [Example 037, 2-(2-chloro-4-(2-((6-(1-methyl-1H-pyrazol-4-yl)imidazo[1,2-a]pyridin-2-yl)amino)-2-oxoethyl)phenoxy)nico-tinamide]: 34 nM.
